Measured values: ChEMBL document CHEMBL1201861, “Genomics of Drug Sensitity in Cancer screening data, Wellcome Trust Sanger Institute”

Legend:
Assay in all cases: cells
MV4-11 = assay type: functional, cell-based, Homo sapiens, MV-4-11; settings: Homo sapiens, MV4-11;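 further: cell viability readout measuring growth inhibition of human MV-4-11 cells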
Description: SANGER: Inhibition of human MV-4-11 cell growth in a cell viability assay.

Calu-6 = assay type: functional, cell-based, Homo sapiens; settings: Homo sapiens, Calu-6;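 further: growth of human Calu-6 cells, read out by a cell viability assay, IC50 marking inhibition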
Description: SANGER: Inhibition of human Calu-6 cell growth in a cell viability assay.

LOX IMVI = assay type: functional, cell-based, Homo sapiens; settings: Homo sapiens, LOX IMVI
Description: SANGER: Inhibition of human LOXIMVI cell growth in a cell viability assay.

RH-1 = assay type: functional, cell-based, Homo sapiens; settings: Homo sapiens, RH-1;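 further: growth inhibition of human RH-1 cells, read out with a cell viability assay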
Description: SANGER: Inhibition of human RH-1 cell growth in a cell viability assay.

NB12 = assay type: functional, cell-based, Homo sapiens; settings: Homo sapiens, NB12;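 further: growth inhibition of human NB12 cells, read out by a cell viability assay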
Description: SANGER: Inhibition of human NB12 cell growth in a cell viability assay.

LNCaP-Clone-FGC = assay type: functional, cell-based, Homo sapiens; settings: Homo sapiens, LNCaP-Clone-FGC
Description: SANGER: Inhibition of human LNCaP-Clone-FGC cell growth in a cell viability assay.

EW-3 = assay type: functional, cell-based, Homo sapiens; settings: Homo sapiens, EW-3;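 further: cell viability assay read-out, IC50 reflects inhibition of growth of the EW-3 cells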
Description: SANGER: Inhibition of human EW-3 cell growth in a cell viability assay.

no-11 = assay type: functional, cell-based, Homo sapiens; settings: Homo sapiens;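 further: growth inhibition of human NO-11 cells, read out with a cell viability assay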
Description: SANGER: Inhibition of human no-11 cell growth in a cell viability assay.

DMS-114 = assay type: functional, cell-based, Homo sapiens; settings: Homo sapiens, DMS-114
SK-LMS-1 = assay type: functional, cell-based, Homo sapiens; settings: Homo sapiens, SK-LMS-1;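 further: growth inhibition of human SK-LMS-1 cells, read out with a cell viability assay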
Description: SANGER: Inhibition of human SK-LMS-1 cell growth in a cell viability assay.

MLMA = assay type: functional, cell-based, Homo sapiens; settings: Homo sapiens, MLMA;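 further: growth inhibition of MLMA cells (human), determined through a cell viability readout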
Description: SANGER: Inhibition of human MLMA cell growth in a cell viability assay.

RCC10RGB = assay type: functional, cell-based, Homo sapiens; settings: Homo sapiens, RCC10RGB;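 further: growth inhibition of human RCC10RGB cells, read out by a cell viability assay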
Description: SANGER: Inhibition of human RCC10RGB cell growth in a cell viability assay.

ES7 = assay type: functional, cell-based, Homo sapiens; settings: Homo sapiens, ES7;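 further: growth inhibition of cultured human ES7 cells, read out as cell viability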
Description: SANGER: Inhibition of human ES7 cell growth in a cell viability assay.

SJSA-1 = assay type: functional, cell-based, Homo sapiens; settings: Homo sapiens, SJSA-1;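 further: growth inhibition of human SJSA-1 cells, read out through a cell viability measurement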
Description: SANGER: Inhibition of human SJSA-1 cell growth in a cell viability assay.

TGW = assay type: functional, cell-based, Homo sapiens; settings: Homo sapiens, TGW;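 further: growth inhibition of human TGW cells, read out with a cell viability assay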
Description: SANGER: Inhibition of human TGW cell growth in a cell viability assay.

SNB-75 = assay type: functional, cell-based, Homo sapiens; settings: Homo sapiens, SNB-75;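 further: cell viability assay measuring growth inhibition of human SNB-75 cells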
Description: SANGER: Inhibition of human SNB75 cell growth in a cell viability assay.

HT = assay type: functional, cell-based, Homo sapiens; settings: Homo sapiens, HT
Description: SANGER: Inhibition of human HT cell growth in a cell viability assay.

HAL-01 = assay type: functional, cell-based, Homo sapiens; settings: Homo sapiens, HAL-01;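 further: growth inhibition of human HAL-01 cells, read out with a cell viability assay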
Description: SANGER: Inhibition of human HAL-01 cell growth in a cell viability assay.

TK-10 = assay type: functional, cell-based, Homo sapiens; settings: Homo sapiens, TK-10;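 further: growth inhibition of TK-10 cells, read out in a cell viability assay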
Description: SANGER: Inhibition of human TK10 cell growth in a cell viability assay.

BV-173 = assay type: functional, cell-based, Homo sapiens; settings: Homo sapiens, BV-173
Description: SANGER: Inhibition of human BV-173 cell growth in a cell viability assay.

KMOE-2 = assay type: functional, cell-based, Homo sapiens; settings: Homo sapiens, KMOE-2;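 further: growth inhibition of human KMOE-2 cells, read out with a cell viability assay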
Description: SANGER: Inhibition of human KMOE-2 cell growth in a cell viability assay.

OVCAR-4 = assay type: functional, cell-based, Homo sapiens; settings: Homo sapiens, OVCAR-4;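 further: growth inhibition of human OVCAR-4 cells, measured with a cell viability assay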
Description: SANGER: Inhibition of human OVCAR-4 cell growth in a cell viability assay.

L-428 = assay type: functional, cell-based, Homo sapiens; settings: Homo sapiens, L-428
Description: SANGER: Inhibition of human L-428 cell growth in a cell viability assay.

HD-MY-Z = assay type: functional, cell-based, Homo sapiens; settings: Homo sapiens, HD-MY-Z;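 further: growth inhibition of HD-MY-Z cells, read out with a cell viability assay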
Description: SANGER: Inhibition of human HD-MY-Z cell growth in a cell viability assay.

LXF-289 cell line = assay type: functional, cell-based, Homo sapiens; settings: Homo sapiens, LXF-289
Description: SANGER: Inhibition of human LXF-289 cell growth in a cell viability assay.

EW-11 = assay type: functional, cell-based, Homo sapiens; settings: Homo sapiens, EW-11;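 further: growth inhibition of human EW-11 cells, measured with a cell viability assay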
Description: SANGER: Inhibition of human EW-11 cell growth in a cell viability assay.

RKO = assay type: functional, cell-based, Homo sapiens; settings: Homo sapiens, RKO;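 further: growth inhibition of human RKO cells, read out with a cell viability assay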
Description: SANGER: Inhibition of human RKO cell growth in a cell viability assay.

LS-411N = assay type: functional, cell-based, Homo sapiens; settings: Homo sapiens, LS-411N
TE-10 = assay type: functional, cell-based, Homo sapiens; settings: Homo sapiens, TE-10;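 further: growth inhibition of TE-10 cells, measured by a cell viability assay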
Description: SANGER: Inhibition of human TE-10 cell growth in a cell viability assay.

TE-1 = assay type: functional, cell-based, Homo sapiens; settings: Homo sapiens, TE-1
Description: SANGER: Inhibition of human TE-1 cell growth in a cell viability assay.

HT-144 = assay type: functional, cell-based, Homo sapiens; settings: Homo sapiens, HT-144
Description: SANGER: Inhibition of human HT-144 cell growth in a cell viability assay.

D-502MG = assay type: functional, cell-based, Homo sapiens; settings: Homo sapiens, D-502MG
Description: SANGER: Inhibition of human D-502MG cell growth in a cell viability assay.

MC116 = assay type: functional, cell-based, Homo sapiens; settings: Homo sapiens, MC116;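 further: growth inhibition of MC116 cells, read out with a cell viability assay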
Description: SANGER: Inhibition of human MC116 cell growth in a cell viability assay.

NCI-H1092 = assay type: functional, cell-based, Homo sapiens; settings: Homo sapiens, NCI-H1092;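 further: cell growth inhibition measured with a cell viability assay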
Description: SANGER: Inhibition of human NCI-H1092 cell growth in a cell viability assay.

BB65-RCC = assay type: functional, cell-based, Homo sapiens; settings: Homo sapiens, BB65-RCC;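 further: growth inhibition of the cell line, measured with a cell viability assay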
Description: SANGER: Inhibition of human BB65-RCC cell growth in a cell viability assay.

C8166 = assay type: functional, cell-based, Homo sapiens; settings: Homo sapiens, C8166;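 further: growth inhibition of human C8166 cells measured by a cell viability assay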
Description: SANGER: Inhibition of human C8166 cell growth in a cell viability assay.

COLO-800 = assay type: functional, cell-based, Homo sapiens; settings: Homo sapiens, COLO-800;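 further: growth inhibition of COLO-800 cells, read out with a cell viability assay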
Description: SANGER: Inhibition of human COLO-800 cell growth in a cell viability assay.

EM-2 = assay type: functional, cell-based, Homo sapiens; settings: Homo sapiens, EM-2;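 further: growth inhibition of EM-2 cells, read out with a cell viability assay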
Description: SANGER: Inhibition of human EM-2 cell growth in a cell viability assay.

NCI-H747 = assay type: functional, cell-based, Homo sapiens; settings: Homo sapiens, NCI-H747;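 further: growth inhibition of human NCI-H747 cells, read out by a cell viability assay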
Description: SANGER: Inhibition of human NCI-H747 cell growth in a cell viability assay.

NCI-H23 = assay type: functional, cell-based, Homo sapiens; settings: Homo sapiens, NCI-H23;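 further: cell viability assay measuring growth inhibition of NCI-H23 cells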
Description: SANGER: Inhibition of human NCI-H23 cell growth in a cell viability assay.

J-RT3-T3-5 = assay type: functional, cell-based, Homo sapiens; settings: Homo sapiens, J-RT3-T3-5;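 further: cell viability assay measuring growth inhibition of human J-RT3-T3-5 cells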
Description: SANGER: Inhibition of human J-RT3-T3-5 cell growth in a cell viability assay.

D-263MG = assay type: functional, cell-based, Homo sapiens; settings: Homo sapiens, D-263MG
Description: SANGER: Inhibition of human D-263MG cell growth in a cell viability assay.

NCI-H1355 = assay type: functional, cell-based, Homo sapiens; settings: Homo sapiens, NCI-H1355;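 further: growth inhibition of human NCI-H1355 cells, read out by a cell viability assay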
Description: SANGER: Inhibition of human NCI-H1355 cell growth in a cell viability assay.

SF-126 = assay type: functional, cell-based, Homo sapiens; settings: Homo sapiens, SF-126;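 further: growth inhibition of human SF126 cells, read out with a cell viability assay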
Description: SANGER: Inhibition of human SF126 cell growth in a cell viability assay.

DOHH-2 = assay type: functional, cell-based, Homo sapiens; settings: Homo sapiens, DOHH-2;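 further: growth inhibition of human DOHH-2 cells, read out with a cell viability assay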
Description: SANGER: Inhibition of human DOHH-2 cell growth in a cell viability assay.

K5 = assay type: functional, cell-based, Homo sapiens; settings: Homo sapiens, K5
Description: SANGER: Inhibition of human K5 cell growth in a cell viability assay.

A498 = assay type: functional, cell-based, Homo sapiens; settings: Homo sapiens, A498;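 further: growth inhibition of human A498 cells, read out with a cell viability assay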
Description: SANGER: Inhibition of human A498 cell growth in a cell viability assay.

A704 = assay type: functional, cell-based, Homo sapiens; settings: Homo sapiens, A704;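 further: growth inhibition of human A704 cells, read out with a cell viability assay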
Description: SANGER: Inhibition of human A704 cell growth in a cell viability assay.

TE-11 = assay type: functional, cell-based, Homo sapiens; settings: Homo sapiens, TE-11;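 further: growth inhibition of human TE-11 cells, read out by a cell viability assay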
Description: SANGER: Inhibition of human TE-11 cell growth in a cell viability assay.

SMILES: CC[C@H](CO)Nc1nc(NCc2ccccc2)c2ncn(C(C)C)c2n1 [SELICICLIB]
- IC50 (MV4-11): > 16 µM
- IC50 (Calu-6): > 16 µM
- IC50 (LOX IMVI): > 16 µM
- IC50 (RH-1): > 16 µM
- IC50 (NB12): > 16 µM
- IC50 (LNCaP-Clone-FGC): > 16 µM
- IC50 (EW-3): > 16 µM
- IC50 (no-11): > 16 µM
- IC50 (DMS-114): > 16 µM
- IC50 (SK-LMS-1): > 16 µM
- IC50 (MLMA): > 16 µM
- IC50 (RCC10RGB): > 16 µM
- IC50 (ES7): > 16 µM
- IC50 (SJSA-1): > 16 µM
- IC50 (TGW): > 16 µM
- IC50 (SNB-75): > 16 µM
- IC50 (HT): > 16 µM
- IC50 (HAL-01): > 16 µM
- IC50 (TK-10): > 16 µM
- IC50 (BV-173): > 16 µM
- IC50 (KMOE-2): > 16 µM
- IC50 (OVCAR-4): > 16 µM
- IC50 (L-428): > 16 µM
- IC50 (HD-MY-Z): > 16 µM
- IC50 (LXF-289 cell line): > 16 µM
- IC50 (EW-11): > 16 µM
- IC50 (RKO): > 16 µM
- IC50 (LS-411N): > 16 µM
- IC50 (TE-10): > 16 µM
- IC50 (TE-1): > 16 µM
- IC50 (HT-144): > 16 µM
- IC50 (D-502MG): > 16 µM
- IC50 (MC116): > 16 µM
- IC50 (NCI-H1092): > 16 µM
- IC50 (BB65-RCC): 9.97 µM
- IC50 (C8166): > 16 µM
- IC50 (COLO-800): > 16 µM
- IC50 (EM-2): > 16 µM
- IC50 (NCI-H747): > 16 µM
- IC50 (NCI-H23): > 16 µM
- IC50 (J-RT3-T3-5): > 16 µM
- IC50 (D-263MG): > 16 µM
- IC50 (NCI-H1355): > 16 µM
- IC50 (SF-126): > 16 µM
- IC50 (DOHH-2): > 16 µM
- IC50 (K5): > 16 µM

SMILES: CC(C)CCN1c2nc(Nc3cc(F)c(O)c(F)c3)ncc2N(C)C(=O)C1C (stereo unspecified)
- IC50 (MV4-11): 0.979 µM
- IC50 (Calu-6): > 5 µM
- IC50 (LOX IMVI): 2.04 µM
- IC50 (RH-1): > 5 µM
- IC50 (NB12): > 5 µM
- IC50 (LNCaP-Clone-FGC): 3.7 µM
- IC50 (EW-3): 0.0358 µM
- IC50 (no-11): > 5 µM
- IC50 (DMS-114): 4.81 µM
- IC50 (SK-LMS-1): > 5 µM
- IC50 (A498): > 5 µM
- IC50 (MLMA): > 5 µM
- IC50 (RCC10RGB): > 5 µM
- IC50 (ES7): 0.916 µM
- IC50 (SJSA-1): 2.67 µM
- IC50 (TGW): 1.05 µM
- IC50 (SNB-75): > 5 µM
- IC50 (HT): > 5 µM
- IC50 (HAL-01): > 5 µM
- IC50 (TK-10): > 5 µM
- IC50 (BV-173): 1.99 µM
- IC50 (OVCAR-4): > 5 µM
- IC50 (L-428): > 5 µM
- IC50 (HD-MY-Z): 3.37 µM
- IC50 (LXF-289 cell line): 4.4 µM
- IC50 (EW-11): 3.41 µM
- IC50 (RKO): 4.73 µM
- IC50 (LS-411N): > 5 µM
- IC50 (TE-10): > 5 µM
- IC50 (A704): > 5 µM
- IC50 (TE-1): > 5 µM
- IC50 (HT-144): > 5 µM
- IC50 (D-502MG): 3.07 µM
- IC50 (MC116): > 5 µM
- IC50 (NCI-H1092): > 5 µM
- IC50 (BB65-RCC): 3.45 µM
- IC50 (C8166): > 5 µM
- IC50 (TE-11): > 5 µM
- IC50 (COLO-800): 2.54 µM
- IC50 (EM-2): 2.92 µM
- IC50 (NCI-H747): > 5 µM
- IC50 (NCI-H23): > 5 µM
- IC50 (J-RT3-T3-5): > 5 µM
- IC50 (D-263MG): > 5 µM
- IC50 (NCI-H1355): > 5 µM
- IC50 (SF-126): > 5 µM
- IC50 (DOHH-2): > 5 µM
- IC50 (K5): > 5 µM

SMILES: CC1(C)CNc2cc(NC(=O)c3cccnc3NCc3ccncc3)ccc21 [MOTESANIB]
- IC50 (MV4-11): > 2 µM
- IC50 (Calu-6): > 2 µM
- IC50 (LOX IMVI): > 2 µM
- IC50 (RH-1): > 2 µM
- IC50 (NB12): > 2 µM
- IC50 (LNCaP-Clone-FGC): > 2 µM
- IC50 (EW-3): > 2 µM
- IC50 (no-11): > 2 µM
- IC50 (DMS-114): > 2 µM
- IC50 (A498): > 2 µM
- IC50 (MLMA): > 2 µM
- IC50 (RCC10RGB): > 2 µM
- IC50 (ES7): > 2 µM
- IC50 (SJSA-1): > 2 µM
- IC50 (TGW): > 2 µM
- IC50 (SNB-75): > 2 µM
- IC50 (HT): > 2 µM
- IC50 (HAL-01): > 2 µM
- IC50 (TK-10): > 2 µM
- IC50 (BV-173): > 2 µM
- IC50 (OVCAR-4): > 2 µM
- IC50 (L-428): > 2 µM
- IC50 (HD-MY-Z): > 2 µM
- IC50 (LXF-289 cell line): > 2 µM
- IC50 (EW-11): > 2 µM
- IC50 (RKO): > 2 µM
- IC50 (LS-411N): > 2 µM
- IC50 (TE-10): > 2 µM
- IC50 (A704): > 2 µM
- IC50 (TE-1): > 2 µM
- IC50 (HT-144): > 2 µM
- IC50 (D-502MG): > 2 µM
- IC50 (MC116): > 2 µM
- IC50 (NCI-H1092): > 2 µM
- IC50 (BB65-RCC): > 2 µM
- IC50 (C8166): > 2 µM
- IC50 (TE-11): > 2 µM
- IC50 (COLO-800): > 2 µM
- IC50 (EM-2): > 2 µM
- IC50 (NCI-H747): > 2 µM
- IC50 (NCI-H23): > 2 µM
- IC50 (J-RT3-T3-5): > 2 µM
- IC50 (D-263MG): > 2 µM
- IC50 (NCI-H1355): > 2 µM
- IC50 (SF-126): > 2 µM
- IC50 (DOHH-2): > 2 µM
- IC50 (K5): > 2 µM
